Reference: patent US4512994A, “Long-acting theophylline in medicinal form” (priority 1982, dated 1985)
Where “and” joins values, the source holds several entries; their conditions need not be identical. Equal entries are not always repeated. Where two headings read alike, the source gives them in different places.

Legend:
[1] = oral toxicity (LD50) in mice; conditions: mouse, in vivo, read-out: LD50 orally in mice
[2] = clinical theophylline blood level on 4th day, theophylline alone or with idrocilamide (Tables 3 and 4); conditions: inferred from clinical blood levels
Experimental: A series of comparative clinical tests were conducted. Five male adults asthma patients took a simultaneous dose of 200 mg theophylline and 100 mg idocrilamide twice a day orally, at 0800 and 2000 hours. On the 4th day, after establishment of a state of equilibrium, the theophylline blood level in the patients under treatment was determined at various times. The determinations were made by highpressure liquid chromatography (Waters apparatus, Lichrosorb RP 18 adsorbent of Merck, methanol, formamide, monopotassium phosphate solvent. Detection by UV spectrophotometry).
The time in hours (t) after the morning dose is plotted on the x-axis, the time 0 corresponding to the dose of medicine on the 4th day. The theophylline blood concentrations in mg/l (th mg/l) are plotted on the y-axis.

mastocytes = conditions: hypersensitivity reactions; cited from earlier work
bronchial smooth muscles = conditions: cited from earlier work
in vivo = conditions: rat, po, 15 mg/kg
Experimental: Groups of the so-treated animals were killed by carotid section 15', 30', 1 h, 2 h, 3 h, 4 h, 6 h, and 8 h after administration of the theophylline. The blood was collected in herparinized, centrifuged tubes, and the plasma was decanted. The theophylline blood level was determined in plasma samples after extraction by liquid chromatography.

[3] = cited from earlier work
phosphodiesterase = conditions: cited from earlier work
pulmonary vital capacity = conditions: digestive disorders, nervous troubles, cardiac troubles, neurological symptoms; cited from earlier work
[4] = cited from earlier work; remark: listed apart in the source
cyclic AMP = conditions: cited from earlier work

Structure (SMILES): CN(CCO)C(=O)C=Cc1ccccc1 [Compound III, N-methyl, N-(2-hydroxyethyl)cinnamamide]
- LD50 [1]: 3000 mg/kg

Structure (SMILES): CC1(C)OCCN1C(=O)C=Cc1ccccc1 [Compound IX, 3-cinnamoyl-2,2-dimethyloxazolidine]
- LD50 [1]: > 3200 mg/kg

Structure (SMILES): CC(CO)NC(=O)C=Cc1ccccc1 (stereo not shown) [Compound IV, N-[2-(1-hydroxypropyl)]cinnamamide]
- LD50 [1]: 3200 mg/kg

Structure (SMILES): O=C(C=Cc1ccc(Cl)cc1)NCCO [Compound II, N-(2-hydroxyethyl)-4-chlorocinnamamide]
- LD50 [1]: 1600 mg/kg

Structure (SMILES): CC1(C)OCCN1C(=O)C=Cc1ccc(Cl)cc1 [Compound VII, 3-(4-chlorocinnamoyl)-2,2-dimethylloxazolidine]
- LD50 [1]: > 3200 mg/kg

Structure (SMILES): O=C(C=Cc1ccccc1)NCCO [Compound I, N-(2-hydroxyethyl)cinnamamide]
- LD50 [1]: 3000 mg/kg
- action mechanism on theophylline metabolism [2]: interference of idrocilamide on the metabolism of theophylline

Structure (SMILES): CC1(C)OCCN1C(=O)C=Cc1ccc(F)cc1 [Compound VIII, 2,2-dimethyl-3-(4-fluorocinnamoyl) oxazolidine]
- LD50 [1]: 2000 mg/kg

Structure (SMILES): CC(=O)c1ccc(C=CC(=O)NCCO)cc1 [Compound VI, N-(2-hydroxyethyl)-4-acetylcinnamamide]
- LD50 [1]: 3200 mg/kg

Structure (SMILES): Cn1c(=O)c2[nH]cnc2n(C)c1=O [theophylline, 1,3-dimethylxanthine]
- inhibiting action on mastocytes (mastocytes): partially inhibiting their degranulation
- effect of intrapulmonary administration by aerosol (bronchial smooth muscles; aerosol): ineffective
- bronchodilating action (bronchial smooth muscles): active toward all bronchoconstrictive agents
- AUC at 8 h (in vivo): 95.1 µg·h/mL
- AUC(0-inf) (in vivo): 117 µg·h/mL
- Cmax (in vivo): 20300 ng/mL
- concentration at 0.25 h (in vivo): 17500 ng/mL
- concentration at 0.5 h (in vivo): 20300 ng/mL
- concentration at 1 h (in vivo): 18900 ng/mL
- concentration at 2 h (in vivo): 16700 ng/mL
- concentration at 3 h (in vivo): 13900 ng/mL
- concentration at 4 h (in vivo): 12000 ng/mL
- concentration at 6 h (in vivo): 8040 ng/mL
- concentration at 8 h (in vivo): 4320 ng/mL
- half-life (in vivo): 3.47 h
- solubility in water [3]: slightly soluble in water
- inhibition of phosphodiesterase (phosphodiesterase): competitive inhibition
- concentration above which intolerance signs can appear (pulmonary vital capacity): > 20000 ng/mL
- metabolism ([4]; in vivo): metabolized at the hepatic level to give inactive metabolites eliminated by the kidneys
- half-life ([4]; normal adult): ~6 h and 4 h
- oral absorption [4]: very good
- oral absorption ([4]; listed as Theophylline): absorbed very well orally
- rectal absorption ([4]; rectal): very irregular
- tissue increase of cyclic AMP (cyclic AMP): tissue increase of cyclic AMP

Structure (SMILES): O=C(C=Cc1ccc(F)cc1)NCCO [Compound V, N-(2-hydroxyethyl)-4-fluorocinnamamide]
- LD50 [1]: > 3200 mg/kg
